# Source: PubChem BioAssay AID651760 (The Scripps Research Institute Molecular Screening Center, 2012)
# The source made the active and inactive calls. How the calls were made is not given here.
# Biological target: Hepatocyte nuclear factor 4-alpha (Homo sapiens) (UniProt P41235)
# Test: HNF4 dimerization inhibitors, potency, dose response, counter-screen for ABHD5-PLIN5 interaction inhibitor project, biochemical, luminescence, late stage (AID 651760)
# Details: luminescence biochemical assay
# Sequence of Hepatocyte nuclear factor 4-alpha (Homo sapiens) (P41235 whole entry, looked up): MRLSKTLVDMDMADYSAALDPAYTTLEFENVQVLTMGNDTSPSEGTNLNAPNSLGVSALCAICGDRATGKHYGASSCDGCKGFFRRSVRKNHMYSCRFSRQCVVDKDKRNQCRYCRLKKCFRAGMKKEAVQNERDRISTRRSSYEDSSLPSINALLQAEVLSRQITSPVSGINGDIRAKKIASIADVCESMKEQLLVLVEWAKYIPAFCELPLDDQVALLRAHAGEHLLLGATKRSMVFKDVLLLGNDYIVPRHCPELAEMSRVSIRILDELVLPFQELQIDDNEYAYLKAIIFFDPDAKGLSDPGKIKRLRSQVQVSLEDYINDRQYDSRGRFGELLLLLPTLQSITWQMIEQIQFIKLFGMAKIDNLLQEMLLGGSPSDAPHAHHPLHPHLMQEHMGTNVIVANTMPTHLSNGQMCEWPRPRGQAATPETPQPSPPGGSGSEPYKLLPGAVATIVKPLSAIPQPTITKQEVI
row,IC50,SMILES
1,> 39.8 µM (inactive),CCN(CC)CCNC(=O)c1ccc(NC(=O)c2cn(-c3ccccc3)nc2-c2cccs2)cc1
2,> 39.8 µM (inactive),CN1CCC(=C2c3ccccc3CC(=O)c3sccc32)CC1
3,8.21 µM,CC(=O)Cc1cc(O)c2ccccc2c1OC(=O)c1ccccc1
4,inactive,O=C(/C(=C/O)N=Nc1ccc(Cl)cc1)c1ccncc1
5,4.18 µM,CCOc1cc(N)c(Cl)cc1C(=O)NCC1CN(Cc2ccc(F)cc2)CCO1 (stereo not given)
6,2.8 µM,CC(C)c1ccc(N2C=Nc3ccc(C(C)C)cc3C2)cc1
7,6.03 µM,CCN(CC)CCOCCOC(=O)C1(c2ccccc2)CCCC1
8,> 39.8 µM (inactive),COCCN(CCOC)c1nc(N)c2c(N)nc3c(c2c1C#N)CC(=O)N3Cc1ccc(Cl)cc1
9,> 39.8 µM (inactive),CC1CCN(S(=O)(=O)c2ccc(NC(=O)Cc3cccs3)cc2)CC1
10,> 39.8 µM (inactive),FC(F)(F)c1cccc(NC(=S)N(CCCN2CCCC2)Cc2cccn2Cc2ccc(Cl)cc2)c1
11,> 39.8 µM (inactive),CCCNC(=O)Nc1ccc2c(c1)N(C)C(=O)c1ccccc1S2
12,5.57 µM,CCN(CC)CCC(C)OC(c1ccccc1)c1ccccc1 (stereo not given)
13,> 39.8 µM (inactive),COc1cc(OC)cc(C(=O)NC(=S)N(Cc2ccccc2)C(C)C)c1
14,> 39.8 µM (inactive),CN(C)CCCN(C(=O)CCc1ccccc1)c1nc2ccc(Br)cc2s1
15,> 39.8 µM (inactive),O=C(C[n+]1cccc(CNC(=O)c2ccc(OC(F)F)cc2)c1)Nc1cccc(C(F)(F)F)c1
16,5.09 µM,CCN(CC)CCOc1ccc(/C(=C(/Cl)c2ccccc2)c2ccccc2)cc1
17,> 39.8 µM (inactive),Cc1nc2c(o1)CCc1ccccc1C2N1CCN(C)CC1 (stereo not given)
18,> 39.8 µM (inactive),CCCCNC(=O)Nc1ccc2c(c1)N(C)C(=O)c1ccccc1S2
19,> 39.8 µM (inactive),COc1ccccc1-c1cc(C(=O)NC2CCN(C)CC2)c2ccc(Cl)c(C)c2n1
20,> 39.8 µM (inactive),C=C[C@]1(C)C[C@@H](OC(=O)CSCCN(CC)CC)[C@]2(C)C(C)CC[C@]3(CCC(=O)[C@H]32)[C@@H](C)[C@@H]1O (stereo not given in full)

row,IC50,SMILES
1,> 39.8 µM (inactive),CCCCOC(=O)Nc1cc(C(=O)OC)ccc1C(=O)OC
2,> 39.8 µM (inactive),CC1CCN(S(=O)(=O)c2ccc(NC(=O)Cc3ccccc3)cc2)CC1
3,> 39.8 µM (inactive),COc1cc(C)c2sc3ccccc3c(=O)c2c1NCCN(C)C
4,> 39.8 µM (inactive),COc1ccc(NC(=S)N(CCCN2CCCC2)Cc2cccn2Cc2ccc(Cl)cc2)cc1Cl
5,inactive,Cc1ccc2nc3cc([N+](=O)[O-])cc([N+](=O)[O-])c3cc2c1
6,inactive,NC(=NCCCCCCN=C(N)/N=C(\N)Nc1ccc(Cl)cc1)/N=C(\N)Nc1ccc(Cl)cc1
7,inactive,CC1=CC(C)(C)Nc2ccc(OC(=O)C(C)N3C(=O)c4ccccc4C3=O)cc21 (stereo not given)
8,> 39.8 µM (inactive),CCN(CC)CCN(CC(=O)Nc1c(C)cc(C)cc1C)C(=O)c1ccccc1
9,inactive,CC(=O)Cc1cc(O)c2ccccc2c1OC(=O)c1ccc(Br)cc1
10,8.97 µM,CCOC(=O)c1c(NC(=O)/C=C/C(=O)O)sc(C)c1-c1ccc(C(C)(C)C)cc1
11,> 39.8 µM (inactive),O=c1[nH]c(C2CCN(S(=O)(=O)c3ccc(S(=O)(=O)NC4CC4)cc3)CC2)nc2c1nnn2Cc1ccc(F)cc1
12,> 39.8 µM (inactive),Cc1cc(C)c(NC(=O)CN2CCN3CCCC3C2)c(C)c1 (stereo not given)
13,> 39.8 µM (inactive),CN(C)CCCN(C(=O)CCc1ccccc1)c1nc2ccc(Cl)cc2s1
14,> 39.8 µM (inactive),CN(C)CCN(Cc1ccco1)c1ccccn1
15,> 39.8 µM (inactive),CN(C)CCOC1(Cc2ccc(F)cc2)CCC(C(C)(C)C)CC1 (stereo not given)
16,inactive,CCOC(=O)c1c(NC(C)=O)sc2c1CCC(C=O)=C2Sc1ccccc1
17,> 39.8 µM (inactive),COc1cc2c(cc1OC)C(C)N(CCc1ccc(Cl)cc1)CC2 (stereo not given)
18,> 39.8 µM (inactive),CC(=O)Nc1ccc(S(=O)(=O)N2c3ccc(F)cc3CCC2C)cc1 (stereo not given)
19,> 39.8 µM (inactive),O=c1[nH]c(C2CCN(S(=O)(=O)c3ccc(F)cc3)CC2)nc2c1nnn2Cc1ccc2c(c1)OCCO2
20,inactive,COc1ccc(C)c2sc(N(CCN(C)C)C(=O)/C=C/c3cccs3)nc12
